Measurements: patent publication US8765944B2, “Compounds for the treatment of hepatitis C” (priority 2010, dated 2014)

These molecules were tested on HCV pseudoparticles (assay: HCV pseudoparticle infection assay (luciferase reporter, Huh7 cells)). Details: Hepatitis C virus, genotype 1b, Huh-7, 48 h, HCV pseudoparticles (genotype 1b), luciferase activity 2 days after infection.
Format: cell-based, HCV (genotype 1b E1 and E2 envelope)

| SMILES | EC50 |
| --- | --- |
| CS(=O)(=O)NC(=O)CNC(=O)c1ccc(Nc2nc(NC3(c4ccc(Cl)cc4)CC3)nc(OCC(F)(F)F)n2)cc1 [Example 2009] | 97 nM |
| C=CS(=O)(=O)NC(=O)CNC(=O)c1ccc(Nc2nc(NC3(c4ccc(Cl)cc4)CC3)nc(OCC(F)(F)F)n2)cc1 [Example 2010] | 67 nM |
| C=CS(=O)(=O)NC(=O)CCCNC(=O)c1ccc(Nc2nc(NC3(c4ccc(Cl)cc4)CC3)nc(OCC(F)(F)F)n2)cc1 [Example 2017] | 3.2 nM |
| C=C[C@@H]1C[C@]1(NC(=O)CCCNC(=O)c1ccc(Nc2nc(NC3(c4ccc(Cl)cc4)CC3)nc(OCC(F)(F)F)n2)cc1)C(=O)NS(=O)(=O)C1CC1 [Example 2032] | 1.3 nM |
| O=C(CCCNC(=O)c1ccc(Nc2nc(NC3(c4ccc(Cl)cc4)CC3)nc(OCC(F)(F)F)n2)cc1)N[C@]1(C(=O)NS(=O)(=O)C2(C(F)F)CC2)C[C@H]1C1CC1 [Example 2045] | 0.72 nM |

Same assay, conditions: Hepatitis C virus, genotype 1b, Huh-7, 48 h, HCV pseudoparticles (genotype 1b), luciferase activity 2 days after infection, class

| SMILES | EC50 |
| --- | --- |
| CC(C)(C)OC(=O)N1CCC[C@H]1C(=O)NCCS(=O)(=O)NC(=O)c1ccc(Nc2nc(NC3(c4ccc(Cl)cc4)CC3)nc(OCC(F)(F)F)n2)cc1 [Example 1041] | 0.5 to 100 nM |
| CC(C)(C)OC(=O)N1CCC(C(=O)NCCS(=O)(=O)NC(=O)c2ccc(Nc3nc(NC4(c5ccc(Cl)cc5)CC4)nc(OCC(F)(F)F)n3)cc2)CC1 [Example 1042] | 0.5 to 100 nM |
| O=C(NCCS(=O)(=O)NC(=O)c1ccc(Nc2nc(NC3(c4ccc(Cl)cc4)CC3)nc(OCC(F)(F)F)n2)cc1)c1cccnc1 [Example 1043] | 0.5 to 100 nM |
| COC(=O)NCCS(=O)(=O)NC(=O)c1ccc(Nc2nc(NC3(c4ccc(Cl)cc4)CC3)nc(OCC(F)(F)F)n2)cc1 [Example 1044] | 0.5 to 100 nM |
| CC(C)OC(=O)NCCS(=O)(=O)NC(=O)c1ccc(Nc2nc(NC3(c4ccc(Cl)cc4)CC3)nc(OCC(F)(F)F)n2)cc1 [Example 1045] | 0.5 to 100 nM |
| CC(C)(C)COC(=O)NCCS(=O)(=O)NC(=O)c1ccc(Nc2nc(NC3(c4ccc(Cl)cc4)CC3)nc(OCC(F)(F)F)n2)cc1 [Example 1046] | 0.5 to 100 nM |
| CNC(=O)NCCS(=O)(=O)NC(=O)c1ccc(Nc2nc(NC3(c4ccc(Cl)cc4)CC3)nc(OCC(F)(F)F)n2)cc1 [Example 1047] | 0.5 to 100 nM |
| CC(C)NC(=O)NCCS(=O)(=O)NC(=O)c1ccc(Nc2nc(NC3(c4ccc(Cl)cc4)CC3)nc(OCC(F)(F)F)n2)cc1 [Example 1048] | 0.5 to 100 nM |
| CC(C)(C)NC(=O)NCCS(=O)(=O)NC(=O)c1ccc(Nc2nc(NC3(c4ccc(Cl)cc4)CC3)nc(OCC(F)(F)F)n2)cc1 [Example 1049] | 0.5 to 100 nM |
| O=C(NCCS(=O)(=O)NC(=O)c1ccc(Nc2nc(NC3(c4ccc(Cl)cc4)CC3)nc(OCC(F)(F)F)n2)cc1)Nc1cccnc1 [Example 1050] | 0.5 to 100 nM |
| CS(=O)(=O)NC(=O)CNC(=O)c1ccc(Nc2nc(NC3(c4ccc(Cl)cc4)CC3)nc(OCC(F)(F)F)n2)cc1 [Example 2009] | 0.5 to 100 nM |
| C=CS(=O)(=O)NC(=O)CNC(=O)c1ccc(Nc2nc(NC3(c4ccc(Cl)cc4)CC3)nc(OCC(F)(F)F)n2)cc1 [Example 2010] | 0.5 to 100 nM |
| CS(=O)(=O)NC(=O)CCCCNC(=O)c1ccc(Nc2nc(NC3(c4ccc(Cl)cc4)CC3)nc(OCC(F)(F)F)n2)cc1 [Example 2011] | 0.5 to 100 nM |
| O=C(CCCCNC(=O)c1ccc(Nc2nc(NC3(c4ccc(Cl)cc4)CC3)nc(OCC(F)(F)F)n2)cc1)NS(=O)(=O)C1CC1 [Example 2012] | 0.5 to 100 nM |
| CC(C)S(=O)(=O)NC(=O)CCCCNC(=O)c1ccc(Nc2nc(NC3(c4ccc(Cl)cc4)CC3)nc(OCC(F)(F)F)n2)cc1 [Example 2013] | 0.5 to 100 nM |
| CCS(=O)(=O)NC(=O)CCCCNC(=O)c1ccc(Nc2nc(NC3(c4ccc(Cl)cc4)CC3)nc(OCC(F)(F)F)n2)cc1 [Example 2014] | 0.5 to 100 nM |
| C=CS(=O)(=O)NC(=O)CCCCNC(=O)c1ccc(Nc2nc(NC3(c4ccc(Cl)cc4)CC3)nc(OCC(F)(F)F)n2)cc1 [Example 2015] | 0.5 to 100 nM |
| C=CS(=O)(=O)NC(=O)CCNC(=O)c1ccc(Nc2nc(NC3(c4ccc(Cl)cc4)CC3)nc(OCC(F)(F)F)n2)cc1 [Example 2016] | 0.5 to 100 nM |
| C=CS(=O)(=O)NC(=O)CCCNC(=O)c1ccc(Nc2nc(NC3(c4ccc(Cl)cc4)CC3)nc(OCC(F)(F)F)n2)cc1 [Example 2017] | 0.5 to 100 nM |
| CS(=O)(=O)NC(=O)CCNC(=O)c1ccc(Nc2nc(NC3(c4ccc(Cl)cc4)CC3)nc(OCC(F)(F)F)n2)cc1 [Example 2018] | 0.5 to 100 nM |
| CS(=O)(=O)NC(=O)CCCNC(=O)c1ccc(Nc2nc(NC3(c4ccc(Cl)cc4)CC3)nc(OCC(F)(F)F)n2)cc1 [Example 2019] | 0.5 to 100 nM |
| CC(C)S(=O)(=O)NC(=O)CCNC(=O)c1ccc(Nc2nc(NC3(c4ccc(Cl)cc4)CC3)nc(OCC(F)(F)F)n2)cc1 [Example 2020] | 0.5 to 100 nM |
| O=C(CCNC(=O)c1ccc(Nc2nc(NC3(c4ccc(Cl)cc4)CC3)nc(OCC(F)(F)F)n2)cc1)NS(=O)(=O)C1CC1 [Example 2021] | 0.5 to 100 nM |
| CN(C)S(=O)(=O)NC(=O)CCNC(=O)c1ccc(Nc2nc(NC3(c4ccc(Cl)cc4)CC3)nc(OCC(F)(F)F)n2)cc1 [Example 2022] | 0.5 to 100 nM |
| CC(C)S(=O)(=O)NC(=O)CCCNC(=O)c1ccc(Nc2nc(NC3(c4ccc(Cl)cc4)CC3)nc(OCC(F)(F)F)n2)cc1 [Example 2023] | 0.5 to 100 nM |
| O=C(CCCNC(=O)c1ccc(Nc2nc(NC3(c4ccc(Cl)cc4)CC3)nc(OCC(F)(F)F)n2)cc1)NS(=O)(=O)C1CC1 [Example 2024] | 0.5 to 100 nM |

| SMILES | EC50 |
| --- | --- |
| CN(C)S(=O)(=O)NC(=O)CCCNC(=O)c1ccc(Nc2nc(NC3(c4ccc(Cl)cc4)CC3)nc(OCC(F)(F)F)n2)cc1 [Example 2025] | 0.5 to 100 nM |
| C=C[C@@H]1C[C@]1(NC(=O)CCCCNC(=O)c1ccc(Nc2nc(NC3(c4ccc(Cl)cc4)CC3)nc(OCC(F)(F)F)n2)cc1)C(=O)NS(=O)(=O)C1CCC1 [Example 2026] | 0.5 to 100 nM |
| C=C[C@@H]1C[C@]1(NC(=O)CCCCNC(=O)c1ccc(Nc2nc(NC3(c4ccc(Cl)cc4)CC3)nc(OCC(F)(F)F)n2)cc1)C(=O)NS(=O)(=O)C(C)(C)C [Example 2027] | 0.5 to 100 nM |
| O=C(CCCCNC(=O)c1ccc(Nc2nc(NC3(c4ccc(Cl)cc4)CC3)nc(OCC(F)(F)F)n2)cc1)NS(=O)(=O)C1CCC1 [Example 2028] | 0.5 to 100 nM |
| O=C(CCCCNC(=O)c1ccc(Nc2nc(NC3(c4ccc(Cl)cc4)CC3)nc(OCC(F)(F)F)n2)cc1)NC1(C(=O)NS(=O)(=O)C2CC2)CC1 [Example 2029] | 0.5 to 100 nM |
| CN(C)S(=O)(=O)NC(=O)CCCCNC(=O)c1ccc(Nc2nc(NC3(c4ccc(Cl)cc4)CC3)nc(OCC(F)(F)F)n2)cc1 [Example 2030] | 0.5 to 100 nM |
| C=C[C@@H]1C[C@]1(NC(=O)CCCCNC(=O)c1ccc(Nc2nc(NC3(c4ccc(Cl)cc4)CC3)nc(OCC(F)(F)F)n2)cc1)C(=O)NS(=O)(=O)C1CC1 [Example 2031] | 0.5 to 100 nM |
| C=C[C@@H]1C[C@]1(NC(=O)CCCNC(=O)c1ccc(Nc2nc(NC3(c4ccc(Cl)cc4)CC3)nc(OCC(F)(F)F)n2)cc1)C(=O)NS(=O)(=O)C1CC1 [Example 2032] | 0.5 to 100 nM |
| O=C(CCCNC(=O)c1ccc(Nc2nc(NC3(c4ccc(Cl)cc4)CC3)nc(OCC(F)(F)F)n2)cc1)NC1(C(=O)NS(=O)(=O)C2CC2)CC1 [Example 2033] | 0.5 to 100 nM |
| C=C[C@@H]1C[C@]1(NC(=O)CCCNC(=O)c1ccc(Nc2nc(NC3(c4ccc(Cl)cc4)CC3)nc(OCC(F)(F)F)n2)cc1)C(=O)NS(=O)(=O)C(C)(C)C [Example 2035] | 0.5 to 100 nM |
| O=C(CCCNC(=O)c1ccc(Nc2nc(NC3(c4ccc(Cl)cc4)CC3)nc(OCC(F)(F)F)n2)cc1)N[C@]1(C(=O)NS(=O)(=O)C2CC2)C[C@H]1C1CC1 [Example 2036] | 0.5 to 100 nM |
| O=C(CCCNC(=O)c1ccc(Nc2nc(NC3(c4ccc(Cl)cc4)CC3)nc(OCC(F)(F)F)n2)cc1)N[C@]1(C(=O)NS(=O)(=O)C2CC2)C[C@H]1C1CC1(F)F (some centres unmarked) [Example 2037] | 0.5 to 100 nM |
| O=C(CCCNC(=O)c1ccc(Nc2nc(NC3(c4ccc(Cl)cc4)CC3)nc(OCC(F)(F)F)n2)cc1)N[C@]1(C(=O)NS(=O)(=O)C2CC2)C[C@H]1C(F)F [Example 2038] | 0.5 to 100 nM |
| CS(=O)(=O)NC(=O)[C@@]1(NC(=O)CCCNC(=O)c2ccc(Nc3nc(NC4(c5ccc(Cl)cc5)CC4)nc(OCC(F)(F)F)n3)cc2)C[C@H]1C1CC1 [Example 2039, 4-(4-(1-(4-chlorophenyl)cyclopropylamino)-6-(2,2,2-trifluoroethoxy)-1,3,5-triazin-2-ylamino)-N-(4-((1S,2R)-2-(methylsulfonylcarbamoyl)bi(cyclopropan)-2-ylamino)-4-oxobutyl)benzamide] | 0.5 to 100 nM |
| C=CS(=O)(=O)NC(=O)[C@@]1(NC(=O)CCCNC(=O)c2ccc(Nc3nc(NC4(c5ccc(Cl)cc5)CC4)nc(OCC(F)(F)F)n3)cc2)C[C@H]1C1CC1 [Example 2040] | 0.5 to 100 nM |
| CC(C)S(=O)(=O)NC(=O)[C@@]1(NC(=O)CCCNC(=O)c2ccc(Nc3nc(NC4(c5ccc(Cl)cc5)CC4)nc(OCC(F)(F)F)n3)cc2)C[C@H]1C1CC1 [Example 2041] | 0.5 to 100 nM |
| O=C(CCCNC(=O)c1ccc(Nc2nc(NC3(c4ccc(Cl)cc4)CC3)nc(OCC(F)(F)F)n2)cc1)N[C@]1(C(=O)NS(=O)(=O)C2CCC2)C[C@H]1C1CC1 [Example 2042] | 0.5 to 100 nM |
| CN(C)S(=O)(=O)NC(=O)[C@@]1(NC(=O)CCCNC(=O)c2ccc(Nc3nc(NC4(c5ccc(Cl)cc5)CC4)nc(OCC(F)(F)F)n3)cc2)C[C@H]1C1CC1 [Example 2043] | 0.5 to 100 nM |
| O=C(CCCNC(=O)c1ccc(Nc2nc(NC3(c4ccc(Cl)cc4)CC3)nc(OCC(F)(F)F)n2)cc1)N[C@]1(C(=O)NS(=O)(=O)C2(F)CC2)C[C@H]1C1CC1 [Example 2044] | 0.5 to 100 nM |
| O=C(CCCNC(=O)c1ccc(Nc2nc(NC3(c4ccc(Cl)cc4)CC3)nc(OCC(F)(F)F)n2)cc1)N[C@]1(C(=O)NS(=O)(=O)C2(C(F)F)CC2)C[C@H]1C1CC1 [Example 2045] | 0.5 to 100 nM |
| CS(=O)(=O)NC(=O)[C@@]1(NC(=O)CCCNC(=O)c2ccc(Nc3nc(NC4(c5ccc(Cl)cc5)CC4)nc(OCC(F)(F)F)n3)cc2)C[C@H]1C1CC1(F)F (some centres unmarked) [Example 2046] | 0.5 to 100 nM |
| CCS(=O)(=O)NC(=O)[C@@]1(NC(=O)CCCNC(=O)c2ccc(Nc3nc(NC4(c5ccc(Cl)cc5)CC4)nc(OCC(F)(F)F)n3)cc2)C[C@H]1C1CC1(F)F (some centres unmarked) [Example 2047] | 0.5 to 100 nM |
| CC(C)S(=O)(=O)NC(=O)[C@@]1(NC(=O)CCCNC(=O)c2ccc(Nc3nc(NC4(c5ccc(Cl)cc5)CC4)nc(OCC(F)(F)F)n3)cc2)C[C@H]1C1CC1(F)F (some centres unmarked) [Example 2048] | 0.5 to 100 nM |
| CN(C)S(=O)(=O)NC(=O)[C@@]1(NC(=O)CCCNC(=O)c2ccc(Nc3nc(NC4(c5ccc(Cl)cc5)CC4)nc(OCC(F)(F)F)n3)cc2)C[C@H]1C1CC1(F)F (some centres unmarked) [Example 2049] | 0.5 to 100 nM |
| CC(C)(C)S(=O)(=O)NC(=O)[C@@]1(NC(=O)CCCNC(=O)c2ccc(Nc3nc(NC4(c5ccc(Cl)cc5)CC4)nc(OCC(F)(F)F)n3)cc2)C[C@H]1C1CC1(F)F (some centres unmarked) [Example 2050] | 0.5 to 100 nM |
